Measured values published in patent publication US8629147B2, “Heterocyclic compounds useful in the treatment of neoplastic diseases, inflammatory disorders and immunomodulatory disorders” (ChemBridge Corporation, priority 2005, dated 2014).

What was measured:
[1] = molecular target: T1, human IGF1R kinase domain (Homo sapiens, UniProt P08069); assay: IGF1R tyrosine phosphorylation inhibition, Alphascreen phosphotyrosine PT66 assay; type: biochemical; details: recombinant kinase domain, 1 hour co-incubation, 20 to 0.1 μM
T1 construct: human IGF1R precursor protein corresponding to the amino acids positions 974 through 1293; 6xHis; made in house; host or cells: SF9 insect cells, recombinant baculovirus (Bac-to-Bac System)
T1 sequence (P08069 974-1293): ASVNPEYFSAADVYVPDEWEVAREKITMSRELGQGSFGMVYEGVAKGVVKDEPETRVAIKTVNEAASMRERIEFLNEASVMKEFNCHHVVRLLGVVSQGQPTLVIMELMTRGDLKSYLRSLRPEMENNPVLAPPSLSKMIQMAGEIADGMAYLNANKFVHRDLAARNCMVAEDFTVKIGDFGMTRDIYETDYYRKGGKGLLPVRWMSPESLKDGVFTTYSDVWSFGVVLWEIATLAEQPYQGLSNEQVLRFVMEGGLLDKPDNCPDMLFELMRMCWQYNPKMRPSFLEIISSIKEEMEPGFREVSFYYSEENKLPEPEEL
Description: Inhibition of IGF1R tyrosine phosphorylation was measured in the Alphascreen phosphotyrosine PT66 assay kit (Perkin Elmer Life sciences, Catalog number 6760602) according to the manufacturer's instructions. As a source of enzymatically active IGF1r kinase for this assay, SF9 insect cells were infected with recombinant baculovirus (Bac-to-Bac System, Invitrogen, Carlsbad, Calif.) encoding 6×His-tagged kinase domain portion of human IGF1R precursor protein corresponding to the amino acids positions 974 through 1293 (Abbott et al., 1992, J. Biol. Chem. 267:10759-10763) and recombinant kinase protein was purified to homogeneity using two-step chromatography on immobilized Ni^2+ resin (Ni-NTA) and ion-exchange Q-Sepharose column. Biotinylated poly glu-tyr 4:1 (CIS bio-international, catalog number 61GT0BLA) was used for the kinase substrate. Compounds were serially diluted to give a concentration range from 20 to 0.1 μM and co-incubated with IGF1r kinase, biotinylated peptide substrate and alphascreen components for 1 hour and then read in a Perkin-Elmer alphafusion plate reader. A plot of counts per minute versus log concentration of compounds was fitted to a sigmoidal dose response curve using Graphpad Prism software to generate IC50 values (see FIG. 1 for an example).

[2] = system: MCF7 human breast tumor cells; assay: CellTiter-Glo luminescent cell viability assay, MCF7; type: cell-based; details: 48 hours, 20 to 0.1 μM
Description: (§1) Cell viability of either MCF7 human breast tumor cells (American Type Culture Collection catalog #HTB 22) or NCI-H929 human plasmacytoma cells (ATCC catalog #CRL-9068) was assessed using the Promega CellTiter-Glo luminescent cell viability assay according to manufacturer's instructions. In brief, cells were plated at 10,000 cells per well in a clear bottom white 96 well microtiter plate (Costar catalog #3604) in 100 μL of cell growth medium. Compounds were then added to the cells to give final concentrations of compound ranging from 20 to 0.1 μM. Cells were incubated 48 hours after which 100 μL per well of celltiter-glo reagent was added and luminescence was measured in a BMG polarstar plate luminometer. A plot of counts per minute versus log concentration of compounds was fitted to a sigmoidal dose response curve using Graphpad Prism software to generate IC50 values.

[3] = system: NCI-H929 human plasmacytoma cells; assay: CellTiter-Glo luminescent cell viability assay, NCI-H929; type: cell-based; details: 48 hours, 20 to 0.1 μM
Description: as §1

[4] = molecular target: T2, recombinant TrkA kinase domain (Homo sapiens, UniProt P04629); assay: TrkA tyrosine kinase activity inhibition, Alphascreen phosphotyrosine PT66 assay; type: biochemical; details: compounds 10 to 0.005 μM, 1 hour incubation
T2 construct: commercial preparation of recombinant TrkA kinase domain; purchased Upstate Cell Signaling 14-571
T2 sequence (P04629 510-781 limits assumed): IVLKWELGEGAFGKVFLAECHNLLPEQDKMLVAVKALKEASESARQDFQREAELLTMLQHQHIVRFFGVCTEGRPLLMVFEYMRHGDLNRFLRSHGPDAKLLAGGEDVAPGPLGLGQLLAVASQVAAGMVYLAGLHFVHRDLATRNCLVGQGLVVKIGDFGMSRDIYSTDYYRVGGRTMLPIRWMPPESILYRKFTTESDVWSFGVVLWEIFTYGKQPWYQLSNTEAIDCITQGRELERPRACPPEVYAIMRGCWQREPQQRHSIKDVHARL
Description: Inhibition of TrkA tyrosine kinase activity was measured using the Alphascreen phosphotyrosine PT66 assay kit (Perkin Elmer Life Sciences, Catalog Number 6760602) according to the manufacturer's instructions. As a source of enzymatically active TrkA kinase for this assay, the commercial preparation of recombinant TrkA kinase domain (Upstate Cell Signaling, Catalog Number 14-571) was used. Biotinylated poly Glu-Tyr 4:1 (CIS bio-international, catalog number 61GT0BLA) was used for the kinase substrate. Compounds were serially diluted to give a concentration range from 10 to 0.005 μM and co-incubated with TrkA kinase, biotinylated peptide substrate and Alphascreen kit components for 1 hour and then read in a Perkin-Elmer Alpha Fusion plate reader. A plot of counts per minute versus log concentration of compounds was fitted to a sigmoidal dose response curve using Graphpad Prism software to generate IC50 values.

| Structure (SMILES) | IC50 [1] [µM] | IC50 [2] [µM] | IC50 [3] [µM] | IC50 [4] [µM] |
| --- | --- | --- | --- | --- |
| CN1CCN(CCc2ccc(NC(=O)c3cn(-c4ncc5c(n4)-c4cc(Cl)ccc4OC5)nc3N)cc2)CC1 | ≤ 5 | 10 to 15 | 5 to 10 |  |
| COc1ncccc1-c1ccc(O)c(-c2nc3cc(C(=O)NCc4ccc(CN5CCN(C)CC5)cc4)ccc3[nH]2)c1 |  |  |  | > 0.2 |
| CN1CCN(c2ccc(NC(=O)c3ccc4nc(-c5ccc6ccccc6c5O)[nH]c4c3)cc2)CC1 | ≤ 5 | 10 to 15 | 5 to 10 |  |
| COc1ncccc1-c1ccc(O)c(-c2nc3ccc(C(=O)NCC4CCCC(CN)C4)cc3[nH]2)c1 (stereo not drawn) |  |  |  | > 0.2 |
| CN1CCN(c2ccc3nc(-c4cc(-c5cccnc5)ccc4O)[nH]c3c2)CC1 | ≤ 5 | 10 to 15 | 10 to 15 |  |
| CCN1CCC2(CCN(CCc3ccc(NC(=O)c4ccc5[nH]c(-c6cc(-c7cccnc7OC)ccc6O)nc5c4)cc3)C2)C1 (stereo not drawn) | ≤ 5 | 10 to 15 | ≤ 5 |  |
| COCCN1CCC(CNC(=O)c2ccc3nc(-c4cc(-c5cccnc5OC)ccc4O)[nH]c3c2)C1 (stereo not drawn) |  |  |  | 0.02 to 0.2 |
| COc1ccc2c(c1)OCc1cnc(-n3cc(C(=O)NCCCc4ccncc4)c(N)n3)nc1-2 | 10 to 15 | 10 to 15 | 10 to 15 |  |
| O=C(NCCc1c[nH]cn1)c1cc2nc(-c3cc(-c4cccnc4O)ccc3O)[nH]c2cc1Cl |  |  |  | < 0.02 |
| COc1ncccc1-c1ccc(O)c(-c2nc3ccc(C(=O)NCCCCCN(C)C)cc3[nH]2)c1 |  |  |  | > 0.2 |
| COc1ncccc1-c1ccc(O)c(-c2nc3cc(C(=O)N[C@@H](C)Cc4c[nH]cn4)ccc3[nH]2)c1 |  |  |  | > 0.2 |
| COc1ncccc1-c1ccc(O)c(-c2nc3ccc(C(=O)NCCCN4CCCCC4C)cc3[nH]2)c1 (stereo not drawn) |  |  |  | < 0.02 |
| CCN1CCC2(CCN(CCc3ccc(NC(=O)c4ccc5[nH]c(-c6cc(-c7cccnc7O)ccc6O)nc5c4)cc3)C2)C1 (stereo not drawn) [drawing 1792] |  |  |  | < 0.02 |
| CCN1CCC2(CCN(c3cc(C)c4nc(-c5c(NC[C@@H](O)c6cccc(Cl)c6)cc[nH]c5=O)[nH]c4c3)C2)C1 (stereo partly drawn) | ≤ 5 | 5 to 10 | ≤ 5 |  |
| COc1ccc2c(c1)CCc1cnc(-n3cc(-c4nc5cc(N6CCN(C)CC6)ccc5[nH]4)c(N)n3)nc1-2 | ≤ 5 | 10 to 15 | 5 to 10 |  |
| COc1ncccc1-c1ccc(O)c(-c2nc3ccc(C(=O)NCCCN4CCN(C)CC4)cc3[nH]2)c1 |  |  |  | > 0.2 |
| COc1ncccc1-c1ccc(O)c(-c2nc3ccc(C(=O)NC4CCCC(N)C4)cc3[nH]2)c1 (stereo not drawn) |  |  |  | > 0.2 |
| COc1ncccc1-c1ccc(O)c(-c2nc3ccc(C(=O)NCc4ccc5c(c4)CCCN5C)cc3[nH]2)c1 |  |  |  | > 0.2 |
| COc1ncccc1-c1ccc2[nH]c(-c3nc4cc(C(=O)Nc5ccc(CCN6CCN(C)CC6)cc5)ccc4[nH]3)nc2c1 | ≤ 5 | 10 to 15 | ≤ 5 |  |
| COc1ncccc1-c1ccc(O)c(-c2nc3ccc(C(=O)NCCCCN4CCCC4)cc3[nH]2)c1 [drawing 1807] |  |  |  | > 0.2 |
| COc1ccc2c(c1)CCc1cnc(-n3cc(C(=O)NCc4nc5ccccc5[nH]4)c(N)n3)nc1-2 | ≤ 5 | 5 to 10 | 5 to 10 |  |
| COc1ncccc1-c1ccc(O)c(-c2nc3ccc(C(=O)NCCc4c[nH]cn4)cc3[nH]2)c1 |  |  |  | 0.02 to 0.2 |
| COc1ncccc1-c1ccc2[nH]c(-c3nc4cc(N5CCN(C)CC5)ccc4[nH]3)nc2c1 | ≤ 5 | 10 to 15 | ≤ 5 |  |
| COc1ncccc1-c1ccc(O)c(-c2nc3ccc(C(=O)NCCC4CCCN4C)cc3[nH]2)c1 (stereo not drawn) |  |  |  | 0.02 to 0.2 |
| CN1CCN(c2ccc3nc(-c4cc(-c5ccccc5)ccc4O)[nH]c3c2)CC1 | ≤ 5 | > 25 | 10 to 15 |  |
| COc1ncccc1-c1ccc(O)c(-c2nc3ccc(C(=O)NCCCCN4CCCC4)cc3[nH]2)c1 [drawing 1800] |  |  |  | < 0.02 |

| Structure (SMILES) | IC50 [1] [µM] | IC50 [2] [µM] | IC50 [3] [µM] | IC50 [4] [µM] |
| --- | --- | --- | --- | --- |
| CCN1CCC2(CCN(CCc3ccc(NC(=O)c4ccc5[nH]c(-c6cc(-c7cccnc7O)ccc6O)nc5c4)cc3)C2)C1 (stereo not drawn) [drawing 1786] | ≤ 5 | 5 to 10 | ≤ 5 |  |
| CN1CCN(Cc2cccc(NC(=O)c3cc(N)n(-c4ncc5c(n4)-c4ccccc4CC5)n3)c2)CC1 | ≤ 5 | 10 to 15 | 10 to 15 |  |
| CN1CCN(c2ccc3nc(-c4nc5ccccc5[nH]4)[nH]c3c2)CC1 | ≤ 5 | 10 to 15 | 10 to 15 |  |
| COC(=O)[C@H](Cc1c[nH]cn1)NC(=O)c1ccc2[nH]c(-c3cc(-c4cccnc4OC)ccc3O)nc2c1 |  |  |  | 0.02 to 0.2 |
| CN1CCN(Cc2ccc(NC(=O)c3ccc4[nH]c(-c5cc(Br)ccc5O)nc4c3)cc2)CC1 | ≤ 5 | 10 to 15 |  |  |
| COc1cc(O)c(-c2nc3ccc(C(=O)NCCc4c[nH]cn4)cc3[nH]2)cc1-c1cccnc1OC |  |  |  | 0.02 to 0.2 |
| COc1ncccc1-c1ccc(O)c(-c2nc3cc(C(=O)N[C@H](CO)Cc4c[nH]cn4)ccc3[nH]2)c1 |  |  |  | < 0.02 |
| Cc1cc(N2CCN(C)CC2)cc2nc(-c3nc4cc(N5CCN(C)CC5)cc(C)c4[nH]3)[nH]c12 | ≤ 5 | > 25 | 10 to 15 |  |
| CCN(CC)CCCNC(=O)c1ccc2nc(-c3cc(-c4cccnc4OC)ccc3O)[nH]c2c1 |  |  |  | < 0.02 |
| CN1CCN(c2ccc3nc(-c4ccc(O)c(O)c4O)[nH]c3c2)CC1 | ≤ 5 | 10 to 15 | 10 to 15 |  |
| COc1ccc2c(c1)CCc1cnc(-n3cc(C(=O)NCCc4c[nH]c5ccccc45)c(N)n3)nc1-2 | ≤ 5 | 5 to 10 | > 25 |  |
| COc1ccc2c(c1)CCc1cnc(-n3cc(C(=O)Nc4ccc(/C=C/CN5CCN(C)CC5)cc4)c(N)n3)nc1-2 | ≤ 5 | 10 to 15 | 5 to 10 |  |
| COc1ncccc1-c1ccc(O)c(-c2nc3ccc(C(=O)NCC4CCN(CCO)CC4)cc3[nH]2)c1 |  |  |  | < 0.02 |
| COc1ncccc1-c1ccc(O)c(-c2nc3ccc(C(=O)Nc4ccc(CCN5CCN(c6ccncc6)CC5)cc4)cc3[nH]2)c1 |  |  |  | 0.02 to 0.2 |
| COc1ncccc1-c1ccc(O)c(-c2nc3ccc(C(=O)NCC4CCN(Cc5ccccc5)C4)cc3[nH]2)c1 (stereo not drawn) |  |  |  | 0.02 to 0.2 |
| COc1ccc2c(c1)CCc1cnc(-n3cc(C(=O)Nc4ccc(CCN5CCC(N)CC5)cc4)c(N)n3)nc1-2 | ≤ 5 | > 25 |  |  |
| CCN(CC)CCOc1ccc(NC(=O)c2cn(-c3ncc4c(n3)-c3ccccc3OC4)nc2N)cc1 | ≤ 5 |  | > 25 |  |
| CN1CCN(CCc2ccc(NC(=O)c3ccc4nc(-c5cc(-c6cccnc6O)ccc5O)[nH]c4c3)cc2)CC1 |  |  |  | 0.02 to 0.2 |
| CN1CCN(CCc2ccc(NC(=O)c3cc4nc(-c5cc(-c6cccnc6O)ccc5O)[nH]c4cc3Cl)cc2)CC1 |  |  |  | 0.02 to 0.2 |
| COc1ncccc1-c1ccc(O)c(-c2nc3ccc(C(=O)Nc4ccc(OCCN5CCN(C)CC5)cc4)cc3[nH]2)c1 |  |  |  | > 0.2 |
| COc1ncccc1-c1ccc(O)c(-c2nc3cc(C(=O)N[C@@H](CO)Cc4c[nH]cn4)ccc3[nH]2)c1 |  |  |  | < 0.02 |
| CN1CCCC2(CCCN(CCc3ccc(NC(=O)c4ccc5nc(-c6cc(-c7cccnc7O)ccc6O)[nH]c5c4)cc3)C2)C1 (stereo not drawn) [drawing 1793] |  |  |  | > 0.2 |
| COc1ncccc1-c1ccc(O)c(-c2nc3cc(C(=O)N[C@@H](Cc4c[nH]cn4)C(N)=O)ccc3[nH]2)c1 |  |  |  | < 0.02 |
| COc1ncccc1-c1ccc(O)c(-c2nc3cc(C(=O)NCCc4c[nH]cn4)c(F)cc3[nH]2)c1 |  |  |  | < 0.02 |
| COc1ncccc1-c1ccc(O)c(-c2nc3ccc(C(=O)Nc4ccc(OCCCN5CCN(C)CC5)cc4)cc3[nH]2)c1 |  |  |  | > 0.2 |
